In US20220305115A1 (JANSSEN SCIENCES IRELAND UNLIMITED COMPANY, priority 2019, published 2022):

Tests used:
Assay type in all cases: cell-based
TNFα = test: PBMC cytokine profiling assay, TNFα induction; details: Homo sapiens, 24 h, human PBMCs, 24 hours incubation
Description: (§1) Compounds were dissolved and stored in DMSO (Sigma-Aldrich, St. Louis, Mo.) at 10 mM concentration.
(§2) Cryopreserved human PBMCs isolated from healthy donors were purchased from StemCell Technologies (Vancouver, Canada). Cell culture medium used was RPMI with L-Glutamine (Mediatech, Manassas, Va.) supplemented with 10% fetal bovine serum (Hyclone, GE Healthcare, Logan, Utah) and Penicillin-Streptomycin (Mediatech). Human TNFα, IL12p40, and IFNα2a 384-well Assay capture plates, standards, buffers and processing reagents were obtained from MesoScale Discovery Technologies (MSD; Rockville, Md.).
(§3) Cryopreserved human PBMCs (1×10e8 cells/ml) were thawed at 37° C. and resuspended in 25 mL warm cell culture medium. The cells were pelleted at 200×g (Beckman Avanti J-E) for 5 min and resuspended in 20 mL of fresh culture media. Cells were counted using a Cellometer (Nexcelcom Bioscience), adjusted to 2×10e6 cells, and incubated for 2 hours in an incubator set at 37° C., 5% CO2 to recover from cryopreservation. […]
(§4) Using a Biomek FX 384 well pipetting station (Beckman), conditioned culture medium (CCM) from the assay plate was transferred to MSD capture plates customized for each cytokine. […] MSD Read Buffer diluted to 2× in deionized water and 35 μL/well was added via Biomek FX instrument. The plates were read immediately in a MSD6000 reader. […]

IL12p40 = test: PBMC cytokine profiling assay, IL12-p40 induction; details: Homo sapiens, 24 h, human PBMCs, 24 hours incubation
Description: as §1, §2, §3, §4

IFNα = test: PBMC cytokine profiling assay, IFNα induction; details: Homo sapiens, 24 h, human PBMCs, 24 hours incubation
Description: as §1, §2, §3, §4

human TLR8 = target: T1, human TLR8 (Homo sapiens, UniProt Q9NR97); test: HEK-Blue human TLR8 cell SEAP reporter assay (NF-κB activation); details: HEK-Blue human TLR8 cells, stimulation for 20 hours, Quanti Blue read at 640 nm
T1 construct: host or cells: HEK-Blue human TLR8 cells (HEK293-derived reporter line)
T1 sequence (Q9NR97 27-1041): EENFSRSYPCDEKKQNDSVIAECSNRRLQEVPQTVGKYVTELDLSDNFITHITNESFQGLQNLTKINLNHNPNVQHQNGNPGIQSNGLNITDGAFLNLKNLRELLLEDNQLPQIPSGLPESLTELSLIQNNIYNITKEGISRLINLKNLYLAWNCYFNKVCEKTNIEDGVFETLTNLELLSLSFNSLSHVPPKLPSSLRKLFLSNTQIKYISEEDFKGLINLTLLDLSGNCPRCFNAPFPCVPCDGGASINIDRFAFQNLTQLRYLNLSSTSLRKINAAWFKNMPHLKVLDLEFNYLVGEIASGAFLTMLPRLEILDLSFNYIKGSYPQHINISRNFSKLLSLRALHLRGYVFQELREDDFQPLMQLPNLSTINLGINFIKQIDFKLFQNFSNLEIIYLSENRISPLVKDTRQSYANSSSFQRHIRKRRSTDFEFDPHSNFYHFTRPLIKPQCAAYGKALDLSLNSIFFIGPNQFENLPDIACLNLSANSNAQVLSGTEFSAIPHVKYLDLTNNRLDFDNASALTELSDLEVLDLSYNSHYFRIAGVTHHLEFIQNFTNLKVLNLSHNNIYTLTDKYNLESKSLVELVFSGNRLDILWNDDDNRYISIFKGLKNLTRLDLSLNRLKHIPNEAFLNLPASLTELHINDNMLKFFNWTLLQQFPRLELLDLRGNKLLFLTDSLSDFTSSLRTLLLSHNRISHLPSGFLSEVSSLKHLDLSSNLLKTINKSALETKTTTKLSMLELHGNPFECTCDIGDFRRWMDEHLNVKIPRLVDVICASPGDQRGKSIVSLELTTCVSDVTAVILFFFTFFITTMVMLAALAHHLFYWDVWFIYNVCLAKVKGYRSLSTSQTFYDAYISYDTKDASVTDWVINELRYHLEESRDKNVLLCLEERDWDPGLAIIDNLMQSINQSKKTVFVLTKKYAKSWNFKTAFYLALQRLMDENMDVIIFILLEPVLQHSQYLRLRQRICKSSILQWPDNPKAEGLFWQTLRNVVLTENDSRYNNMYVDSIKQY
Description: (§5) For TLR8 and TLR7 activity testing, HEK-Blue human TLR8 or TLR7 cells (Invivogen, San Diego, Calif., USA) are used, respectively. These cells are designed for studying the stimulation of human TLR8 or TLR7 by monitoring the activation of NF-κB. A SEAP (secreted embryonic alkaline phosphatase) reporter gene is placed under the control of the IFN-b minimal promoter fused to five NF-κB and AP-1-binding sites. Therefore the reporter expression is regulated by the NF-κB promoter upon stimulation of human TLR8 or TLR7 for 20 hours. The cell culture supernatant SEAP reporter activity was determined using Quanti Blue kit (Invivogen, San Diego, Ca, USA) at a wavelength of 640 nm, a detection medium that turns purple/blue in the presence of alkaline phosphatase. EC50 values were determined using Activity Base analysis (ID Business Solution, Limited).

human TLR7 = target: T2, human TLR7 (Homo sapiens, UniProt Q9NYK1); test: HEK-Blue human TLR7 cell SEAP reporter assay (NF-κB activation); details: HEK-Blue human TLR7 cells, stimulation for 20 hours, Quanti Blue read at 640 nm
T2 construct: host or cells: HEK-Blue human TLR7 cells (HEK293-derived reporter line)
T2 sequence (Q9NYK1 27-1049): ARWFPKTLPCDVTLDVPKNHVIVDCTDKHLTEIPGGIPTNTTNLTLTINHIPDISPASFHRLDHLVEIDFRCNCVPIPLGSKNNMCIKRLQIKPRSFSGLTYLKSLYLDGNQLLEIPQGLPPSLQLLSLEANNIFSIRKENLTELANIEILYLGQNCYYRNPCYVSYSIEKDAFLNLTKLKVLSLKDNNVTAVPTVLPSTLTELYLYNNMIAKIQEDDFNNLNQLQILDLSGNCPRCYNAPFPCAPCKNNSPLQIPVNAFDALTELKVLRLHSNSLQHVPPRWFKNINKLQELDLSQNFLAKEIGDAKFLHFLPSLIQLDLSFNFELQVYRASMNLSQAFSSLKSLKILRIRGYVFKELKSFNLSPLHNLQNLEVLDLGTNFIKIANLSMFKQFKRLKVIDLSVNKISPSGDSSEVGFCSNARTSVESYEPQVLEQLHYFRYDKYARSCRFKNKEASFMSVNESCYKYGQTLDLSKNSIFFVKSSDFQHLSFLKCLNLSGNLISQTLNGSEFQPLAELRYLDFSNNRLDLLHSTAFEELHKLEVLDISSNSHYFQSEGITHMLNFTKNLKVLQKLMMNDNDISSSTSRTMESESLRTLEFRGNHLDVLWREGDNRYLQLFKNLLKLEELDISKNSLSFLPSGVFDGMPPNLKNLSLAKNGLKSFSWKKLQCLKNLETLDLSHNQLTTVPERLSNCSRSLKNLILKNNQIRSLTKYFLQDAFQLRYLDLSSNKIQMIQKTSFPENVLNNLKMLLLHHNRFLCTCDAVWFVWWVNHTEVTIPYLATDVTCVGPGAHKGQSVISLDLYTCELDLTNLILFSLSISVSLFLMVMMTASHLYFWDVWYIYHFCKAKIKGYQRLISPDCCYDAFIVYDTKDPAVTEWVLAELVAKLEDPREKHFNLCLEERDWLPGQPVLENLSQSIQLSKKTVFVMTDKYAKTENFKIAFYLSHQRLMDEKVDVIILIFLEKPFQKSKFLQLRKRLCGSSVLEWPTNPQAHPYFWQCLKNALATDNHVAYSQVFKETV
Description: as §5

Row | SMILES | AC50 (TNFα) | AC50 (IL12p40) | AC50 (IFNα) | EC50 (human TLR8) | EC50 (human TLR7)
1 | CCCC[C@@H](Nc1nc(N)nc2cccnc12)[C@H](C)O [Compound 86] | 2900 nM | 2400 nM | 37400 nM | – | –
2 | CCCN(CCC)C(=O)C1=Cc2ccc(-c3cccnc3)cc2N=C(N)C1 [VTX-133, reference compound] | – | – | – | 77 nM | 1860 nM
3 | CCCN(CCC)C(=O)C1=Cc2ccc(-c3cncnc3)cc2N=C(N)C1 [VTX-135, reference compound] | – | – | – | 39 nM | 3610 nM
